Test systems include ACHN renal; MOLT-4 leukemia; NCI-H522 lung; OVCAR-5 ovarian; SF-539 CNS; SK-MEL-28 melanoma; SK-OV-3 ovarian; SR leukemia; UACC-257 melanoma; UACC-62 melanoma.
Assay in all cases: DTP human tumour cell line panel, 48 h

In general, TGI refers to the concentration at which net growth stops. One may read the GI50 as the concentration giving 50% growth inhibition.

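Dose response: 5 concentrations. Exposure: 48 h. Format: 96-well plates. Endpoint: linear interpolation; highest concentration if not reached. At the GI50, growth is halved. At the TGI there is no net growth.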

On to `O=c1c2ccccc2c2nc3ccccc3nc2n1C1CCCCC1`, for which the TGI in the experiment with ACHN renal, in the experiment with MOLT-4 leukemia, in the experiment with NCI-H522 lung, with OVCAR-5 ovarian, in the experiment on SF-539 CNS and with SK-MEL-28 melanoma was more than 100 µM each time. In addition, the TGI with SK-OV-3 ovarian, in the experiment on SR leukemia, in the experiment on UACC-257 melanoma and in the experiment on UACC-62 melanoma was more than 100 µM each time.

As to `CS(=O)(=O)Nc1ccc(Nc2c3ccccc3nc3ccccc23)cc1`, the TGI in the experiment with ACHN renal was 2.69 µM; in the experiment with MOLT-4 leukemia it was 10.4 µM; with NCI-H522 lung it was 13.7 µM; in the experiment on OVCAR-5 ovarian, 21 µM; in the experiment on SF-539 CNS, 20.2 µM; in the experiment on SK-MEL-28 melanoma, 20.7 µM. Further, the TGI with SK-OV-3 ovarian worked out at 16.1 µM; with SR leukemia, 3.83 µM; with UACC-257 melanoma, 8.44 µM; with UACC-62 melanoma, 9 µM.

In the case of `Nc1ccc(/C=N/Nc2ccnc3c(N)cccc23)c2cccnc12`, the GI50 was 1.84 µM with NCI-H522 lung; 1.86 µM in the experiment on OVCAR-5 ovarian; 1.74 µM in the experiment on SF-539 CNS; 1.87 µM with SK-MEL-28 melanoma; 1.82 µM in the experiment on SK-OV-3 ovarian; 0.0336 µM in the experiment with SR leukemia. Also, in the experiment with UACC-62 melanoma, the GI50 is 1.73 µM. Besides, the TGI with NCI-H522 lung turned out to be 3.62 µM; in the experiment with OVCAR-5 ovarian, 3.44 µM; in the experiment on SF-539 CNS, 3.15 µM; with SK-MEL-28 melanoma it was 3.51 µM; with SK-OV-3 ovarian it was 3.3 µM; in the experiment with SR leukemia, 0.153 µM. Moreover, in the experiment with UACC-62 melanoma, the TGI came out at 3.37 µM.

`CCOC(=O)c1c(C(F)(F)F)n([O-])c2ccc(OC)cc2[n+]1=O`: the GI50 with ACHN renal is 4.09 µM; in the experiment on MOLT-4 leukemia it was 4 µM; with NCI-H522 lung it was 6.52 µM; in the experiment on OVCAR-5 ovarian, 5.49 µM; with SF-539 CNS it was 7.97 µM; in the experiment on SK-MEL-28 melanoma, 20.3 µM. Further, the GI50 with SK-OV-3 ovarian was 3.71 µM; in the experiment on SR leukemia, 2.37 µM; in the experiment on UACC-257 melanoma it was 3.69 µM; in the experiment on UACC-62 melanoma, 2.69 µM. Also, the TGI in the experiment with ACHN renal was 40.2 µM; with MOLT-4 leukemia, 17.5 µM; with NCI-H522 lung, 31 µM; in the experiment with OVCAR-5 ovarian it was 48.6 µM; in the experiment on SF-539 CNS it was 27 µM; with SK-MEL-28 melanoma, more than 100 µM. In addition, the TGI was 20.3 µM with SK-OV-3 ovarian, 6.74 µM with SR leukemia, more than 100 µM with UACC-257 melanoma and 12 µM in the experiment with UACC-62 melanoma.

On to `C[C@@]12CCC(=O)C=C1CC[C@H]1C2=CC[C@]2(C)C1CC[C@@]2(C)O` (some centres not stated), for which the TGI with ACHN renal, in the experiment with MOLT-4 leukemia, in the experiment with NCI-H522 lung, with OVCAR-5 ovarian, in the experiment on SF-539 CNS and with SK-MEL-28 melanoma was more than 100 µM in each case. In addition, the TGI in the experiment on SK-OV-3 ovarian, in the experiment on SR leukemia, in the experiment on UACC-257 melanoma and in the experiment with UACC-62 melanoma was more than 100 µM throughout.

Take `N#Cc1ccnc(N2C(=O)CC[C@H]2C(=O)N(c2cncc(F)c2)[C@H](C(=O)NC2CC(F)(F)C2)c2ccccc2Cl)c1`: the GI50 was more than 100 µM in the experiment with ACHN renal; 30.5 µM with MOLT-4 leukemia; more than 100 µM with NCI-H522 lung; more than 100 µM with OVCAR-5 ovarian; more than 100 µM in the experiment on SF-539 CNS; more than 100 µM in the experiment on SK-MEL-28 melanoma. The GI50 in the experiment on SK-OV-3 ovarian was more than 100 µM; with SR leukemia it was 62.5 µM; in the experiment with UACC-257 melanoma, more than 100 µM; with UACC-62 melanoma, 41.2 µM. Further, the total growth inhibition concentration (TGI) in the experiment with ACHN renal, in the experiment on MOLT-4 leukemia, in the experiment with NCI-H522 lung, in the experiment with OVCAR-5 ovarian, in the experiment on SF-539 CNS and in the experiment on SK-MEL-28 melanoma was more than 100 µM in each case. Moreover, the TGI in the experiment with SK-OV-3 ovarian, in the experiment with SR leukemia, in the experiment with UACC-257 melanoma and in the experiment with UACC-62 melanoma was more than 100 µM throughout.

Consider `CC1=C(C(=O)Nc2ccc(Cl)c(Cl)c2)C(c2ccco2)C(C(=O)Nc2ccc(Cl)c(Cl)c2)=C(C)N1`, for which the TGI was 18.2 µM with ACHN renal; 48 µM in the experiment with MOLT-4 leukemia; 26.7 µM in the experiment on NCI-H522 lung; 29.3 µM in the experiment on OVCAR-5 ovarian; 27.7 µM in the experiment with SF-539 CNS; 25.3 µM with SK-MEL-28 melanoma. The TGI in the experiment on SK-OV-3 ovarian came to 28.5 µM; in the experiment on SR leukemia, 32 µM; in the experiment with UACC-257 melanoma, 28.5 µM; in the experiment on UACC-62 melanoma, 26 µM.

Consider `CC12CCC[C@@](C)(C(=O)OC3OC(CO)C(O)C(O)C3O)[C@H]1CCC13CC4CC(OC4(CO)[C@H]1O)[C@@H]23` (some centres not stated), for which the TGI with ACHN renal, in the experiment with MOLT-4 leukemia, in the experiment with NCI-H522 lung, in the experiment on OVCAR-5 ovarian, in the experiment with SF-539 CNS and with SK-MEL-28 melanoma was more than 100 µM each time. Also, the total growth inhibition concentration (TGI) with SK-OV-3 ovarian, with SR leukemia, with UACC-257 melanoma and with UACC-62 melanoma was more than 100 µM in each case.

For the compound `Nc1nc2nc[nH]c2c(=O)[nH]1`, the TGI in the experiment on ACHN renal, in the experiment on NCI-H522 lung, with OVCAR-5 ovarian, in the experiment with SF-539 CNS, with SK-MEL-28 melanoma and with SK-OV-3 ovarian was more than 100 µM throughout. In addition, the TGI in the experiment on SR leukemia, with UACC-257 melanoma and with UACC-62 melanoma was more than 100 µM throughout.

For `COC(=O)[C@]1(C)CCC[C@@]2(C)C1CCC1=CC3(C(C)C)CCC12OO3` (some centres not stated), the TGI in the experiment on ACHN renal, in the experiment with MOLT-4 leukemia, with NCI-H522 lung, in the experiment with OVCAR-5 ovarian, with SF-539 CNS and in the experiment with SK-OV-3 ovarian was more than 100 µM each time. In addition, the TGI in the experiment on SR leukemia, with UACC-257 melanoma and with UACC-62 melanoma was more than 100 µM each time.

`COc1ccc(-c2ccc(C3CC(c4ccc(Cl)cc4)=NN3)o2)c([N+](=O)[O-])c1` (configuration not stated): the GI50 in the experiment on MOLT-4 leukemia, with NCI-H522 lung, in the experiment on OVCAR-5 ovarian, in the experiment with SF-539 CNS, in the experiment on SK-MEL-28 melanoma and in the experiment on SK-OV-3 ovarian was more than 100 µM throughout. Moreover, the GI50 was more than 100 µM in the experiment with SR leukemia, more than 100 µM in the experiment on UACC-257 melanoma and 78.4 µM with UACC-62 melanoma. In addition, the total growth inhibition concentration (TGI) with MOLT-4 leukemia, with NCI-H522 lung, in the experiment on OVCAR-5 ovarian, in the experiment on SF-539 CNS, in the experiment on SK-MEL-28 melanoma and with SK-OV-3 ovarian was more than 100 µM throughout. For the same compound, the TGI in the experiment with SR leukemia, with UACC-257 melanoma and with UACC-62 melanoma was more than 100 µM each time.

`N#Cc1cc([N+](=O)[O-])ccc1NC(=O)C(=O)C(C(=O)/C=C/c1ccccc1)C1OC(=O)c2ccccc21` (configuration not stated): the total growth inhibition concentration (TGI) in the experiment on ACHN renal, in the experiment with NCI-H522 lung, in the experiment on OVCAR-5 ovarian, with SF-539 CNS, in the experiment with SK-MEL-28 melanoma and in the experiment with SK-OV-3 ovarian was more than 100 µM in each case. For the same compound, the TGI in the experiment with SR leukemia, in the experiment with UACC-257 melanoma and with UACC-62 melanoma was more than 100 µM throughout.

As for `c1ccc(CN(Cn2cccn2)Cn2cccn2)nc1`, the TGI in the experiment with ACHN renal, with MOLT-4 leukemia, with NCI-H522 lung, in the experiment on SK-MEL-28 melanoma, in the experiment on SK-OV-3 ovarian and in the experiment with SR leukemia was more than 100 µM each time. Further, the TGI with UACC-257 melanoma and with UACC-62 melanoma was more than 100 µM throughout.

As to `Cc1ccc(Cl)c(NC(=O)C(=O)C(C(=O)c2ccncc2)C2OC(=O)c3ccccc32)c1` (configuration not stated), the TGI with ACHN renal, in the experiment on NCI-H522 lung, in the experiment with SF-539 CNS, in the experiment with SK-MEL-28 melanoma, in the experiment with SK-OV-3 ovarian and in the experiment on SR leukemia was more than 100 µM each time. The TGI in the experiment on UACC-257 melanoma and in the experiment on UACC-62 melanoma was more than 100 µM throughout.

Consider `Nc1c(C(=O)Nc2ccccc2Cl)sc2nc3c(cc12)CCCCCC3`, for which the GI50 with ACHN renal is 2.17 µM; in the experiment with NCI-H522 lung, 13.6 µM; in the experiment with OVCAR-5 ovarian, 6.88 µM; in the experiment on SF-539 CNS, 2.65 µM; with SK-MEL-28 melanoma, 10.2 µM; in the experiment with SK-OV-3 ovarian, 2.65 µM. Besides, the GI50 is 2.18 µM with SR leukemia, 11.1 µM in the experiment on UACC-257 melanoma and 3.32 µM in the experiment on UACC-62 melanoma. In addition, the concentration for total growth inhibition (TGI) with ACHN renal is 4.86 µM; in the experiment on NCI-H522 lung, 91.1 µM; with OVCAR-5 ovarian, more than 100 µM; in the experiment on SF-539 CNS, 8.12 µM; in the experiment on SK-MEL-28 melanoma, more than 100 µM; in the experiment with SK-OV-3 ovarian, 7.88 µM. The TGI in the experiment with SR leukemia, with UACC-257 melanoma and in the experiment on UACC-62 melanoma was more than 100 µM throughout.

In the case of `O=C(Nc1c(O)[nH]c(=S)[nH]c1=O)c1ccc2ccccc2n1`, the TGI in the experiment on ACHN renal, in the experiment on MOLT-4 leukemia, with NCI-H522 lung, in the experiment with SF-539 CNS, in the experiment with SK-MEL-28 melanoma and in the experiment on SK-OV-3 ovarian was more than 100 µM in each case. Besides, the TGI in the experiment with SR leukemia, with UACC-257 melanoma and in the experiment on UACC-62 melanoma was more than 100 µM in each case.

Values taken from PubChem BioAssay (NCI).
